Legend:
Format in all cases: cell-based
Conditions in all cases: compounds at 50 nM and 500 nM
IKZF2 = molecular target: T1, IKZF2 (Homo sapiens, UniProt Q96SW2+Q9UKS7); test: Western blot degradation of IKZF2 in hPBMCs (24 h)
T1 construct: The supernatant was aspirated as the extracted total cell protein; endogenous in cells; host or cells: human peripheral blood mononuclear cells (hPBMCs)
Outline: (§1)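 Compounds were tested at 50 nM and 500 nM on hPBMCs (1×10^6 cells/mL) for 24 h, alongside DMSO. Proteins were detected by Western blot after denaturation at 95 °C; remaining protein computed from normalised band grayscale.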

IKZF1 = molecular target: T2, IKZF1 (Homo sapiens, UniProt Q13422+Q96SW2); test: Western blot degradation of IKZF1 in hPBMCs (24 h)
T2 construct: The supernatant was aspirated as the extracted total cell protein; endogenous in cells; host or cells: human peripheral blood mononuclear cells (hPBMCs)
Outline: as §1

GSPT1 = molecular target: T3, GSPT1 (Homo sapiens, UniProt P15170+Q96SW2); test: Western blot degradation of GSPT1 in hPBMCs (24 h)
T3 construct: The supernatant was aspirated as the extracted total cell protein; endogenous in cells; host or cells: human peripheral blood mononuclear cells (hPBMCs)
T3 sequence (P15170 whole entry): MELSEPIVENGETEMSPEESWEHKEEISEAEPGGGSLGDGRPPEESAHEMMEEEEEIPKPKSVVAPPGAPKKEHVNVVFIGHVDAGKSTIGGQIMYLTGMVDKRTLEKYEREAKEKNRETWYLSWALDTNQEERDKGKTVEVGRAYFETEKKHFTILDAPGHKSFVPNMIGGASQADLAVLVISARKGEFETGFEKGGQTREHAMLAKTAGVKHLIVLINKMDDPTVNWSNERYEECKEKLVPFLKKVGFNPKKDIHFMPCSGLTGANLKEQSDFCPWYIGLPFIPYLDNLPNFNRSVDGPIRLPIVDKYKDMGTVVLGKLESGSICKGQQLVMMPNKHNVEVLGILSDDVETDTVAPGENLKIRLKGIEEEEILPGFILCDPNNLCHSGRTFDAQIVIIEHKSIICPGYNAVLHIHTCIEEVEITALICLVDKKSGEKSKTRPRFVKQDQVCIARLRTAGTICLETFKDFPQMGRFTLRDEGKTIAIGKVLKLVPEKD
T3 sequence (Q96SW2 whole entry): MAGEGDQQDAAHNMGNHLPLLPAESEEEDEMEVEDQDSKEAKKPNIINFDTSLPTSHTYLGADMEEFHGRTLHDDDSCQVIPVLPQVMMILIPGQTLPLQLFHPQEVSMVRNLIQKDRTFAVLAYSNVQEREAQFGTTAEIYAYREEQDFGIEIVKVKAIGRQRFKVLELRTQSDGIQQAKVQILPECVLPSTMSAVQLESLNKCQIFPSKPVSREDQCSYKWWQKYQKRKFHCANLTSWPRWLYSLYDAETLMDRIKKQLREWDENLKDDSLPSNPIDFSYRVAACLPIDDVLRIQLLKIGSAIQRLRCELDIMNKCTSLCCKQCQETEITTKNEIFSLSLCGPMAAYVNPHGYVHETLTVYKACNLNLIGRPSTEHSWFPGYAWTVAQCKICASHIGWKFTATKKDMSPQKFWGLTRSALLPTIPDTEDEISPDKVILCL
T3 sequence (Q16531 whole entry partner): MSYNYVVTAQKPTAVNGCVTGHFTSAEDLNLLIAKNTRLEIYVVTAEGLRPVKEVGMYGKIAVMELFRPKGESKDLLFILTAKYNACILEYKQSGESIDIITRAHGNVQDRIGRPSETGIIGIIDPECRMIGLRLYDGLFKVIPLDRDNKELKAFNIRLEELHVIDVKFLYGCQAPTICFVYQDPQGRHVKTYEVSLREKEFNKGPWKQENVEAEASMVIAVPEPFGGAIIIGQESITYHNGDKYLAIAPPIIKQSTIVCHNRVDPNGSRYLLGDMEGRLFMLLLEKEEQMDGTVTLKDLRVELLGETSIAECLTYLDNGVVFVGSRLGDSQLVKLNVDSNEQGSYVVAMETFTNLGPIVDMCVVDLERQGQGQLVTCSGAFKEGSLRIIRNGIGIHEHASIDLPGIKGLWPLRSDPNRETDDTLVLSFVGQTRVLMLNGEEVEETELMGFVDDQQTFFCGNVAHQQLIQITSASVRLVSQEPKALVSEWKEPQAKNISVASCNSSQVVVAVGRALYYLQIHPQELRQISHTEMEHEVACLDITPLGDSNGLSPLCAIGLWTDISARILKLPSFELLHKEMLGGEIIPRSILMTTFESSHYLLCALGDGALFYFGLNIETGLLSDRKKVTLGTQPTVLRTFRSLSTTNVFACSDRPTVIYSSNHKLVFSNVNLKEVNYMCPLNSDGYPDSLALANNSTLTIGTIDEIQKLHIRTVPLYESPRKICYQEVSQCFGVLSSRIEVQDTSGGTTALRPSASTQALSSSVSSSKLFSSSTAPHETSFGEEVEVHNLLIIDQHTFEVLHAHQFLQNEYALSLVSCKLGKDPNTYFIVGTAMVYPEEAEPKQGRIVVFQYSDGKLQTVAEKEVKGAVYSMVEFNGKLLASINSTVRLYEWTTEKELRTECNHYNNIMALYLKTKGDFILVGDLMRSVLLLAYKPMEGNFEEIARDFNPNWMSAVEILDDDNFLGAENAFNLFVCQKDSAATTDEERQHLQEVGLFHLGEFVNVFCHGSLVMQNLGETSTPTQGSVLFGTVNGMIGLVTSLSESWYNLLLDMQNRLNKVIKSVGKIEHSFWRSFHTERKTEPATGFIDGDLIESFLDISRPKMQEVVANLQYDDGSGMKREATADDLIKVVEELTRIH
Outline: as §1

IKZF3 = molecular target: T4, IKZF3 (Homo sapiens, UniProt Q96SW2+Q9UKT9); test: Western blot degradation of IKZF3 in hPBMCs (24 h)
T4 construct: The supernatant was aspirated as the extracted total cell protein; endogenous in cells; host or cells: human peripheral blood mononuclear cells (hPBMCs)
T4 sequence (Q9UKT9 whole entry): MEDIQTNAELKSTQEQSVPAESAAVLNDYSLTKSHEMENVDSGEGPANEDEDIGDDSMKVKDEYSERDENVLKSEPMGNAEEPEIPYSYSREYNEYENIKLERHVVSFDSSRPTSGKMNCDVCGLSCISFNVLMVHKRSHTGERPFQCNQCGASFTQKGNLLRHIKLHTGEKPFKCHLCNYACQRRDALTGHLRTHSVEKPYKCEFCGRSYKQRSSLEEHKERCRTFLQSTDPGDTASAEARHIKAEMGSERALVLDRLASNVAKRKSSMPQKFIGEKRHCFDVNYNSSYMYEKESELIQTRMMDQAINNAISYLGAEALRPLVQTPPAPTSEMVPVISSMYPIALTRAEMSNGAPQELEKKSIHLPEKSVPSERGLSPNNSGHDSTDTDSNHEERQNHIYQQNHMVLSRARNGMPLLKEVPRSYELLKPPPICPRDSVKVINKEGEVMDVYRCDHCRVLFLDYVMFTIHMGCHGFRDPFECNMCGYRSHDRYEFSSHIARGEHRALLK
T4 sequence (Q96SW2 whole entry): as the sequence (Q96SW2 whole entry) above
T4 sequence (Q16531 whole entry partner): as the sequence (Q16531 whole entry partner) above
Outline: as §1

WEE1 = molecular target: T5, WEE1 (Homo sapiens, UniProt P30291+Q96SW2); test: Western blot degradation of WEE1 in hPBMCs (24 h)
T5 construct: The supernatant was aspirated as the extracted total cell protein; endogenous in cells; host or cells: human peripheral blood mononuclear cells (hPBMCs)
T5 sequence (P30291 whole entry): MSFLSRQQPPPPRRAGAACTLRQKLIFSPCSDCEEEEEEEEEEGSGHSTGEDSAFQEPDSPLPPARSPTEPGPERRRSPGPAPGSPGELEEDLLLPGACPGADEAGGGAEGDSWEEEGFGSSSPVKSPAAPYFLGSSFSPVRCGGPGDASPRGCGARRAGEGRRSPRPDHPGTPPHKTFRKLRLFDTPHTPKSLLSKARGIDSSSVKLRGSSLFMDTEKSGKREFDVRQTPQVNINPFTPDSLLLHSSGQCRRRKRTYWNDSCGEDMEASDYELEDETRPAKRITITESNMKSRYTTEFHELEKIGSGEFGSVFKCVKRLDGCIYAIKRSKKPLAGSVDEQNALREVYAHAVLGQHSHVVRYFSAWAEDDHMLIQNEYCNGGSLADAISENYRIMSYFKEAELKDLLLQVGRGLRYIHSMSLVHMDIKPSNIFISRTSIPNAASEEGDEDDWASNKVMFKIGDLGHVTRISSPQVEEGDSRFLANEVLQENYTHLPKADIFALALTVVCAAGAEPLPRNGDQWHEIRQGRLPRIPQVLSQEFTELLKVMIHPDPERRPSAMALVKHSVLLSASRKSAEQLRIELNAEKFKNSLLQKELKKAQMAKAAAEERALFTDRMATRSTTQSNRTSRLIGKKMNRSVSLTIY
T5 sequence (Q96SW2 whole entry): as the sequence (Q96SW2 whole entry) above
T5 sequence (Q16531 whole entry partner): as the sequence (Q16531 whole entry partner) above
Outline: as §1

CK1α = molecular target: T6, CK1α (Homo sapiens, UniProt P48729+Q96SW2); test: Western blot degradation of CK1α in hPBMCs (24 h)
T6 construct: The supernatant was aspirated as the extracted total cell protein; endogenous in cells; host or cells: human peripheral blood mononuclear cells (hPBMCs)
T6 sequence (P48729 whole entry): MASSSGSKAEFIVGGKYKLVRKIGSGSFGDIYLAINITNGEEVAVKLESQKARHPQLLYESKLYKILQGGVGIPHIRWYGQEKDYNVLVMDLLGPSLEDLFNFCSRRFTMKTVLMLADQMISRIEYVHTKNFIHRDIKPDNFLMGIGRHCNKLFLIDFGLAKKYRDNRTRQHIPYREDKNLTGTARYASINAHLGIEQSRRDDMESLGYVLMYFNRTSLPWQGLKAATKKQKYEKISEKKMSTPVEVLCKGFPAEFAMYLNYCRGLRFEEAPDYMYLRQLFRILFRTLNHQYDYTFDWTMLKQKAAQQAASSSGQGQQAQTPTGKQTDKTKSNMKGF
T6 sequence (Q96SW2 whole entry): as the sequence (Q96SW2 whole entry) above
T6 sequence (Q16531 whole entry partner): as the sequence (Q16531 whole entry partner) above
Outline: as §1

T1 sequence (Q9UKS7 whole entry): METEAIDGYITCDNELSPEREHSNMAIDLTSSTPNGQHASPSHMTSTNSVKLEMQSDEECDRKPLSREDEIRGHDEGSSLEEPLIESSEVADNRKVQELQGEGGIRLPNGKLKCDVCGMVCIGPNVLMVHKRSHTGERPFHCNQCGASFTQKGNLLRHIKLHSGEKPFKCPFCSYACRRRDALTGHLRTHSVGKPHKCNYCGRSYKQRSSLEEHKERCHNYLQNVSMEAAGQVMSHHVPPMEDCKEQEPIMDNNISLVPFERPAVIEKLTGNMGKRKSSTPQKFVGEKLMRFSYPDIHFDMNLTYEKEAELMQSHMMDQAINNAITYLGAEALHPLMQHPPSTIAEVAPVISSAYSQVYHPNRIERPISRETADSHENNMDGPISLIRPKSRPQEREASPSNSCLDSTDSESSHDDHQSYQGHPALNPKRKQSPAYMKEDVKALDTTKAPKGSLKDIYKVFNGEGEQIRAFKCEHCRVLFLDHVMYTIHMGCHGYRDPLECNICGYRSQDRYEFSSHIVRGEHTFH
T1 sequence (Q96SW2 whole entry): as the sequence (Q96SW2 whole entry) above
T1 sequence (Q16531 whole entry partner): as the sequence (Q16531 whole entry partner) above

Compound | IKZF2 substrate protein remaining % (IKZF2) | IKZF1 substrate protein remaining % (IKZF1) | GSPT1 substrate protein remaining % (GSPT1) | IKZF3 substrate protein remaining % (IKZF3) | WEE1 substrate protein remaining % (WEE1) | CK1α substrate protein remaining % (CK1α)
O=C1CCN(N2Cc3cc(CN4CCN(c5cc(F)ccc5F)CC4)ccc3C2=O)C(=O)N1 [GT-06779, 1-(5-((4-(2,5-difluorophenyl)piperazin-1-yl)methyl)-1-oxoisoindolin-2-yl)dihydropyrimidine-2,4(1H,3H)-dione] | B (80%< substrate protein remaining % ≤100%) | B (80%< substrate protein remaining % ≤100%) | B (80%< substrate protein remaining % ≤100%) | B (80%< substrate protein remaining % ≤100%) | B (80%< substrate protein remaining % ≤100%) | A (0% ≤ substrate protein remaining % ≤80%)
O=C1CCN(N2Cc3cc(CN4CCN(c5c(F)cccc5F)CC4)ccc3C2=O)C(=O)N1 [GT-06780, 1-(5-((4-(2,6-difluorophenyl)piperazin-1-yl)methyl)-1-oxoisoindolin-2-yl)dihydropyrimidine-2,4(1H,3H)-dione] | B (80%< substrate protein remaining % ≤100%) | B (80%< substrate protein remaining % ≤100%) | B (80%< substrate protein remaining % ≤100%) | B (80%< substrate protein remaining % ≤100%) | B (80%< substrate protein remaining % ≤100%) | A (0% ≤ substrate protein remaining % ≤80%)
O=C1CCN(N2Cc3cc(CN4CCN(c5ccc(F)c(F)c5)CC4)ccc3C2=O)C(=O)N1 [GT-06781, 1-(5-((4-(3,4-difluorophenyl)piperazin-1-yl)methyl)-1-oxoisoindolin-2-yl)dihydropyrimidine-2,4(1H,3H)-dione] | B (80%< substrate protein remaining % ≤100%) | B (80%< substrate protein remaining % ≤100%) | A (0% ≤ substrate protein remaining % ≤80%) | B (80%< substrate protein remaining % ≤100%) | B (80%< substrate protein remaining % ≤100%) | A (0% ≤ substrate protein remaining % ≤80%)
O=C1CCN(N2Cc3cc(CN4CCN(c5cc(F)cc(F)c5)CC4)ccc3C2=O)C(=O)N1 [GT-06782, 1-(5-((4-(3,5-difluorophenyl)piperazin-1-yl)methyl)-1-oxoisoindolin-2-yl)dihydropyrimidine-2,4(1H,3H)-dione] | B (80%< substrate protein remaining % ≤100%) | B (80%< substrate protein remaining % ≤100%) | A (0% ≤ substrate protein remaining % ≤80%) | B (80%< substrate protein remaining % ≤100%) | B (80%< substrate protein remaining % ≤100%) | A (0% ≤ substrate protein remaining % ≤80%)
O=C1CCN(N2C(=O)c3ccc(CN4CCN(c5ccc(Cl)cc5)CC4)cc3C2=O)C(=O)N1 [GT-06783, 5-((4-(4-chlorophenyl)piperazin-1-yl)methyl)-2-(2,4-dioxotetrahydropyrimidin-1(2H)-yl)isoindoline-1,3-dione] | B (80%< substrate protein remaining % ≤100%) | B (80%< substrate protein remaining % ≤100%) | B (80%< substrate protein remaining % ≤100%) | A (0% ≤ substrate protein remaining % ≤80%) | B (80%< substrate protein remaining % ≤100%) | B (80%< substrate protein remaining % ≤100%)
O=C1CCN(N2C(=O)c3ccc(CN4CCN(c5ccc(Br)cc5)CC4)cc3C2=O)C(=O)N1 [GT-06784, 5-((4-(4-bromophenyl)piperazin-1-yl)methyl)-2-(2,4-dioxotetrahydropyrimidin-1(2H)-yl)isoindoline-1,3-dione] | B (80%< substrate protein remaining % ≤100%) | B (80%< substrate protein remaining % ≤100%) | B (80%< substrate protein remaining % ≤100%) | B (80%< substrate protein remaining % ≤100%) | B (80%< substrate protein remaining % ≤100%) | A (0% ≤ substrate protein remaining % ≤80%)
O=C1CCN(N2C(=O)c3ccc(CN4CCN(c5cccc(F)c5F)CC4)cc3C2=O)C(=O)N1 [GT-06793, 5-((4-(2,3-difluorophenyl)piperazin-1-yl)methyl)-2-(2,4-dioxotetrahydropyrimidin-1(2H)-yl)isoindoline-1,3-dione] | A (0% ≤ substrate protein remaining % ≤80%) | B (80%< substrate protein remaining % ≤100%) | B (80%< substrate protein remaining % ≤100%) | B (80%< substrate protein remaining % ≤100%) | B (80%< substrate protein remaining % ≤100%) | B (80%< substrate protein remaining % ≤100%)
O=C1CCN(N2C(=O)c3ccc(CN4CCN(c5c(F)cccc5F)CC4)cc3C2=O)C(=O)N1 [GT-06796, 5-((4-(2,6-difluorophenyl)piperazin-1-yl)methyl)-2-(2,4-dioxotetrahydropyrimidin-1(2H)-yl)isoindoline-1,3-dione] | B (80%< substrate protein remaining % ≤100%) | B (80%< substrate protein remaining % ≤100%) | B (80%< substrate protein remaining % ≤100%) | B (80%< substrate protein remaining % ≤100%) | A (0% ≤ substrate protein remaining % ≤80%) | B (80%< substrate protein remaining % ≤100%)
O=C1CCN(N2C(=O)c3ccc(CN4CCN(c5ccc(F)c(F)c5)CC4)cc3C2=O)C(=O)N1 [GT-06797, 5-((4-(3,4-difluorophenyl)piperazin-1-yl)methyl)-2-(2,4-dioxotetrahydropyrimidin-1(2H)-yl)isoindoline-1,3-dione] | B (80%< substrate protein remaining % ≤100%) | B (80%< substrate protein remaining % ≤100%) | B (80%< substrate protein remaining % ≤100%) | B (80%< substrate protein remaining % ≤100%) | A (0% ≤ substrate protein remaining % ≤80%) | B (80%< substrate protein remaining % ≤100%)
O=C1CCN(N2C(=O)c3ccc(CN4CCC(c5ccccc5)CC4)cc3C2=O)C(=O)N1 [GT-06803, 2-(2,4-dioxotetrahydropyrimidin-1(2H)-yl)-5-((4-phenylpiperidin-1-yl)methyl)isoindoline-1,3-dione] | B (80%< substrate protein remaining % ≤100%) | B (80%< substrate protein remaining % ≤100%) | B (80%< substrate protein remaining % ≤100%) | B (80%< substrate protein remaining % ≤100%) | B (80%< substrate protein remaining % ≤100%) | A (0% ≤ substrate protein remaining % ≤80%)
O=C1CCN(N2C(=O)c3ccc(CN4CCC(c5cccc(Br)c5)CC4)cc3C2=O)C(=O)N1 [GT-06804, 5-((4-(3-bromophenyl)piperidin-1-yl)methyl)-2-(2,4-dioxotetrahydropyrimidin-1(2H)-yl)isoindoline-1,3-dione] | B (80%< substrate protein remaining % ≤100%) | B (80%< substrate protein remaining % ≤100%) | B (80%< substrate protein remaining % ≤100%) | B (80%< substrate protein remaining % ≤100%) | B (80%< substrate protein remaining % ≤100%) | A (0% ≤ substrate protein remaining % ≤80%)
O=C1CCN(N2C(=O)c3ccc(CN4CCC(c5ccc(Br)cc5)CC4)cc3C2=O)C(=O)N1 [GT-06805, 5-((4-(4-bromophenyl)piperidin-1-yl)methyl)-2-(2,4-dioxotetrahydropyrimidin-1(2H)-yl)isoindoline-1,3-dione] | B (80%< substrate protein remaining % ≤100%) | B (80%< substrate protein remaining % ≤100%) | B (80%< substrate protein remaining % ≤100%) | B (80%< substrate protein remaining % ≤100%) | B (80%< substrate protein remaining % ≤100%) | A (0% ≤ substrate protein remaining % ≤80%)
O=C1CCN(N2C(=O)c3ccc(CN4CCC(c5ccccc5F)CC4)cc3C2=O)C(=O)N1 [GT-06877, 2-(2,4-dioxotetrahydropyrimidin-1(2H)-yl)-5-((4-(2-fluorophenyl)piperidin-1-yl)methyl)isoindoline-1,3-dione] | B (80%< substrate protein remaining % ≤100%) | B (80%< substrate protein remaining % ≤100%) | B (80%< substrate protein remaining % ≤100%) | B (80%< substrate protein remaining % ≤100%) | B (80%< substrate protein remaining % ≤100%) | A (0% ≤ substrate protein remaining % ≤80%)

— patent publication US20260356819A1, “OXOISOINDOLINYL-SUBSTITUTED […] DERIVATIVE AND USE THEREOF” (GLUETACS THERAPEUTICS (SHANGHAI) CO., LTD., priority 2023, published 2026)
